Experimental data from ChEMBL document CHEMBL1201862, “PubChem BioAssay data set” (2004).
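Compound exposure: 48 hours, 5 concentrations, 96-well plates. GI50: concentration for 50% inhibition of growth.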 Calls of active or inactive are those of the source. Cut-off read from the data, not from the text of the source: active = GI50 up to about 1.1 µM and inactive = higher.

Tests used:
Assay in all cases: NCI-60 cell line screen, 48 h
[1] = test system: 786-0
[2] = test system: A498
[3] = test system: A549
[4] = test system: ACHN
[5] = test system: BT-549
[6] = test system: CAKI-1
[7] = test system: CCRF-CEM
[8] = test system: COLO 205
[9] = test system: DU-145
[10] = test system: EKVX
[11] = test system: HCC 2998
[12] = test system: HCT-116
[13] = test system: HCT-15
[14] = test system: HL-60
[15] = test system: HOP-62
[16] = test system: HOP-92
[17] = test system: HT-29
[18] = test system: Hs-578T
[19] = test system: IGROV-1
[20] = test system: K562
[21] = test system: KM12
[22] = test system: LOX IMVI
[23] = test system: M14
[24] = test system: MCF7
[25] = test system: MDA-MB-231
[26] = test system: MDA-MB-435
[27] = test system: MDA-N
[28] = test system: MOLT-4
[29] = test system: NCI-H226
[30] = test system: NCI-H23
[31] = test system: NCI-H460
[32] = test system: NCI-H522
[33] = test system: NCI/ADR-RES
[34] = test system: OVCAR-3
[35] = test system: OVCAR-5
[36] = test system: OVCAR-8
[37] = test system: PC-3
[38] = test system: RPMI-8226
[39] = test system: RXF 393
[40] = test system: SF-268
[41] = test system: SF-295
[42] = test system: SF-539
[43] = test system: SK-MEL-28
[44] = test system: SK-MEL-2
[45] = test system: SK-MEL-5
[46] = test system: SK-OV-3
[47] = test system: SN12C
[48] = test system: SNB-19
[49] = test system: SNB-75
[50] = test system: SR
[51] = test system: SW-620
[52] = test system: T47D
[53] = test system: TK-10
[54] = test system: U-251
[55] = test system: UACC-257
[56] = test system: UACC-62
[57] = test system: UO-31
[58] = test system: Malme-3M

## C=C1C(C2(C)C=CC(=O)OC3(C)COC(=O)CC32)C(OC=O)C(OC(=O)C(O)C(C)CC)C2(C)C(c3ccoc3)CC(OC(C)=O)C12O (stereo not drawn)
[1]
  GI50: > 100 µM (inactive)
[2]
  GI50: > 100 µM (inactive)
[3]
  GI50: > 100 µM (inactive)
[4]
  GI50: 75.9 µM (inactive)
[5]
  GI50: 54.6 µM (inactive)
[6]
  GI50: > 100 µM (inactive)
[7]
  GI50: 35 µM (inactive)
[8]
  GI50: 81.8 µM (inactive)
[9]
  GI50: > 100 µM (inactive)
[10]
  GI50: > 100 µM (inactive)
[11]
  GI50: 23.6 µM (inactive)
[12]
  GI50: 49 µM (inactive)
[13]
  GI50: 84.3 µM
[14]
  GI50: 2.69 µM (inactive)
[15]
  GI50: > 100 µM (inactive)
[16]
  GI50: > 100 µM (inactive)
[17]
  GI50: 32.8 µM (inactive)
[18]
  GI50: > 100 µM (inactive)
[19]
  GI50: 93.5 µM (inactive)
[20]
  GI50: > 100 µM (inactive)
[21]
  GI50: 34 µM (inactive)
[22]
  GI50: 25.3 µM (inactive)
[23]
  GI50: 38.8 µM (inactive)
[24]
  GI50: > 100 µM (inactive)
[25]
  GI50: > 100 µM (inactive)
[26]
  GI50: 40 µM (inactive)
[27]
  GI50: 37.6 µM (inactive)
[28]
  GI50: > 100 µM (inactive)
[29]
  GI50: > 100 µM (inactive)
[30]
  GI50: > 100 µM (inactive)
[31]
  GI50: 42.1 µM (inactive)
[32]
  GI50: > 100 µM (inactive)
[33]
  GI50: > 100 µM (inactive)
[34]
  GI50: > 100 µM (inactive)
[35]
  GI50: > 100 µM (inactive)
[36]
  GI50: > 100 µM (inactive)
[37]
  GI50: 39.2 µM (inactive)
[38]
  GI50: > 100 µM (inactive)
[39]
  GI50: > 100 µM (inactive)
[40]
  GI50: > 100 µM (inactive)
[41]
  GI50: 84.1 µM (inactive)
[42]
  GI50: > 100 µM (inactive)
[43]
  GI50: > 100 µM (inactive)
[44]
  GI50: 64.3 µM (inactive)
[45]
  GI50: 35 µM (inactive)
[46]
  GI50: > 100 µM (inactive)
[47]
  GI50: > 100 µM (inactive)
[48]
  GI50: > 100 µM (inactive)
[49]
  GI50: 50.5 µM (inactive)
[50]
  GI50: 38.9 µM (inactive)
[51]
  GI50: > 100 µM (inactive)
[52]
  GI50: > 100 µM (inactive)
[53]
  GI50: > 100 µM (inactive)
[54]
  GI50: > 100 µM (inactive)
[55]
  GI50: > 100 µM (inactive)
[56]
  GI50: 35.6 µM (inactive)
[57]
  GI50: 67.3 µM (inactive)

## C=CC1ON(Cc2ccccc2)CCc2cc(OC)c(OC)cc21 (stereo not drawn)
[1]
  GI50: > 100 µM (inactive)
[2]
  GI50: 15.2 µM (inactive)
[3]
  GI50: 44.2 µM (inactive)
[4]
  GI50: > 100 µM (inactive)
[5]
  GI50: 28.1 µM (inactive)
[6]
  GI50: 70.5 µM (inactive)
[7]
  GI50: 45.7 µM (inactive)
[8]
  GI50: 41.6 µM (inactive)
[9]
  GI50: > 100 µM (inactive)
[10]
  GI50: 63.4 µM (inactive)
[11]
  GI50: 35.5 µM (inactive)
[12]
  GI50: 45.2 µM (inactive)
[13]
  GI50: 48.2 µM
[14]
  GI50: 26.1 µM (inactive)
[15]
  GI50: 85.5 µM (inactive)
[16]
  GI50: 46.5 µM (inactive)
[17]
  GI50: 42.4 µM (inactive)
[18]
  GI50: > 100 µM (inactive)
[19]
  GI50: 78 µM (inactive)
[20]
  GI50: 42 µM (inactive)
[21]
  GI50: 27 µM (inactive)
[22]
  GI50: 43.3 µM (inactive)
[23]
  GI50: 49.7 µM (inactive)
[24]
  GI50: > 100 µM (inactive)
[25]
  GI50: 81.1 µM (inactive)
[26]
  GI50: 24.5 µM (inactive)
[27]
  GI50: 29 µM (inactive)
[28]
  GI50: 34.7 µM (inactive)
[58]
  GI50: 19.2 µM (inactive)
[29]
  GI50: > 100 µM (inactive)
[30]
  GI50: 53.3 µM (inactive)
[31]
  GI50: 57 µM (inactive)
[32]
  GI50: 41.5 µM (inactive)
[33]
  GI50: 45.5 µM (inactive)
[34]
  GI50: 35.4 µM (inactive)
[35]
  GI50: > 100 µM (inactive)
[36]
  GI50: > 100 µM (inactive)
[37]
  GI50: 48.9 µM (inactive)
[38]
  GI50: 30.3 µM (inactive)
[40]
  GI50: 46.6 µM (inactive)
[41]
  GI50: 31.7 µM (inactive)
[42]
  GI50: 83.4 µM (inactive)
[43]
  GI50: 36.9 µM (inactive)
[45]
  GI50: 16.1 µM (inactive)
[46]
  GI50: 56.5 µM (inactive)
[47]
  GI50: 77.4 µM (inactive)
[48]
  GI50: > 100 µM (inactive)
[49]
  GI50: 72.4 µM (inactive)
[50]
  GI50: 25.7 µM (inactive)
[51]
  GI50: 44.9 µM (inactive)
[52]
  GI50: 27.7 µM (inactive)
[53]
  GI50: > 100 µM (inactive)
[54]
  GI50: 66.5 µM (inactive)
[55]
  GI50: 52.6 µM (inactive)
[56]
  GI50: 56.1 µM (inactive)
[57]
  GI50: 25.5 µM (inactive)
